The subject of data set [1] is Shay's ulcer. The data set can be described thus: Inhibitory effect on Shay's ulcer. The settings on record: Rattus norvegicus; oral, rats; 30 minutes before ligation; 14 hours; read-out: Inhibitory effect on Shay's ulcer, ID50. It is filed as in vivo, male Wistar rats. How it is done:
(§1) The inhibitory effects of the present compounds [I] on various experimental ulcers were tested by using male Wistar rats, weighing about 200 g, in groups of six and determining the respective ulceration indexes for 5 types of experimental ulcers. In each test, the test compounds were suspended in a 0.5% aqueous solution of carboxymethyl cellulose and administered orally in a series of appropriately selected doses ranging from 1 to 100 mg/kg. The test procedures for 5 types of experimental ulcers were as follows:
In rats which had been fasted for 48 hours, the pyloric end of the stomach was ligated and they were maintained for 14 hours without giving any food or water. Then, each rat was sacrificed and the area of the ulcer(s) formed in the forestomach part was measured. The ulceration index was calculated on the basis of the data thus obtained. The test compounds were administered 30 minutes before ligation.
(§2) The pharmacological effect of the test compounds on each of the aforesaid experimental ulcers was evaluated on the basis of the dose (in mg/kg) required to inhibit the formation of ulcers by 50% (hereinafter referred to as ID50). The ID50 value of each test compound was determined by calculating the difference in ulceration index between the untreated group and each treated group, dividing the difference by the ulceration index of the untreated group to obtain the degree of inhibition, and constructing a dose-response curve on the basis of the data thus obtained. For purposes of comparison, the ID50 values of Omeprazole and Compounds α and β were determined in the same manner as described above and are also shown in Table 4.

Data set [2] relates to Water-immersion stress ulcer. The data set can be described thus: Inhibitory effect on water-immersion stress ulcer. As to conditions: Rattus norvegicus; oral, rats; 10 minutes before exposure to the stress; 10 hours; read-out: Inhibitory effect on Water-immersion stress ulcer, ID50. It is filed as in vivo, male Wistar rats. How it is done:
as §1
Rats which had been fasted for 15 hours were immobilized in stress cages and immersed chest-deep in a water bath at 21° C. After 10 hours, each rat was sacrificed and the length of the ulcer(s) formed in the glandular stomach part was measured. The ulceration index was calculated on the basis of the data thus obtained. The test compounds were administered 10 minutes before exposure to the stress.
as §2

The test system of data set [3] is Hydrochloric acid-ethanol ulcer. The data set can be described thus: Inhibitory effect on hydrochloric acid-ethanol ulcer. It is filed as in vivo, male Wistar rats. The settings on record: Rattus norvegicus; oral, rats; 30 minutes before hydrochloric acid-ethanol; 1 hour; read-out: Inhibitory effect on Hydrochloric acid-ethanol ulcer, ID50. How it is done:
as §1
To rats which had been fasted for 24 hours, a 150 mM hydrochloric acid-60% ethanol mixture was orally administered in an amount of 0.5 ml per 100 g of body weight. After an hour, each rat was sacrificed and the length of the ulcer(s) formed in the glandular stomach part was measured. The ulceration index was calculated on the basis of the data thus obtained. The test compounds were administered 30 minutes before administration of the hydrochloric acid-ethanol mixture.
as §2

The subject of data set [4] is Indomethacin ulcer. Briefly: Inhibitory effect on indomethacin ulcer. It is filed as in vivo, male Wistar rats. The settings on record: Rattus norvegicus; oral, rats; 30 minutes before indomethacin 25 mg/kg s.c.; 7 hours; read-out: Inhibitory effect on Indomethacin ulcer, ID50. How it is done: as §1
To rats which had been fasted for 24 hours, indomethacin was subcutaneously administered in a dose of 25 mg/kg. After 7 hours, each rat was sacrificed and the length of the ulcer(s) formed in the glandular stomach part was measured. The ulceration index was calculated on the basis of the data thus obtained. The test compounds were administered 30 minutes before administration of indomethacin.
as §2

Data set [5] is described as follows: Acute toxicity test (LD50). As to conditions: rat, in vivo, rats. How it is done:
The acute toxicity (LD50) of several typical examples of the present compounds [I] (i.e., the compounds of Examples 1, 8, 13, 19, 24, 26 and 33) was tested with 5-weeks-old male Wistar rats. […] When Omeprazole was administered orally, its LD50 value was greater than 4000 mg/kg.

Data set [6] has as its system various experimental ulcers. The data set can be described thus: Inhibitory effects on various experimental ulcers (overall statement). Set-up: species or system male Wistar rats. The settings on record: in vivo. How it is done: as §1, §2
Where [7] appears, read: ip, intraperitoneal administration.

As a reminder, the LD50 is the dose at which mortality reaches 50%.

Consider `CCOc1ccc2[nH]c([S+]([O-])Cc3ncc(C)c(C)c3C)nc2n1` (stereo not drawn) [Example 8, 2-[2-(3,4,5-Trimethyl)pyridylmethylsulfinyl]-5-ethoxyimidazo[4,5-b]pyridine], for which the ED50 in data set [1] amounted to 15.1 mg/kg; in data set [2], 34.2 mg/kg; in data set [3], 8.2 mg/kg; in data set [4], 18.8 mg/kg. Moreover, the results for the LD50 in data set [5] (setting [7]) and in data set [5] (oral administration) were more than 500 mg/kg and more than 4000 mg/kg, respectively.

Regarding `COc1c(C)cnc(C[S+]([O-])c2nc3ncc(C)cc3[nH]2)c1C` (stereo not drawn) [Compound β, 2-[2-(3,5-dimethyl-4-methoxy)pyridylmethylsulfinyl]-6-methylimidazo[4,5-b]-pyridine, reference compound], the ED50 in data set [1] came to 42 mg/kg; in data set [2], 63.3 mg/kg; in data set [3], 25.4 mg/kg; in data set [4], 29.5 mg/kg. Also, the “inhibitory effects on various experimental ulcers (in words)” value in data set [6] is reported as “not satisfactorily reflected in the in vivo tests”.

With `COc1c(C)cnc(C[S+]([O-])c2nc3nc(OCC4CC4)ccc3[nH]2)c1C` (stereo not drawn) [Example 24, 2-[2-(3,5-Dimethyl-4-methoxy)pyridylmethylsulfinyl]-5-cyclopropylmethyloxyimidazo[4,5-b]pyridine], the ED50 in data set [1] was 10.8 mg/kg; in data set [2], 27 mg/kg; in data set [3], 3.5 mg/kg; in data set [4], 13.1 mg/kg. Further, the median lethal dose (LD50) is more than 500 mg/kg in data set [5] (setting [7]) and more than 4000 mg/kg in data set [5] (oral administration).

As for `COc1ccc2[nH]c([S+]([O-])Cc3ncc(C)cc3C)nc2n1` (stereo not drawn) [Example 1, 2-[2-(3,5-Dimethyl)pyridylmethylsulfinyl]-5-methoxyimidazo[4,5-b]pyridine], the ED50 in data set [1] came to 11 mg/kg; in data set [2] it was 26.4 mg/kg; in data set [3] it was 5.1 mg/kg; in data set [4], 12.9 mg/kg. Moreover, the LD50 in data set [5] (setting [7]) is more than 500 mg/kg; in data set [5] (oral administration), more than 4000 mg/kg.

Take `CCCCCCCOc1ccc2[nH]c([S+]([O-])Cc3ncc(C)cc3C)nc2n1` (stereo not drawn) [Example 33, 2-[2-(3,5-Dimethyl)pyridylmethylsulfinyl]-5-n-heptyloxyimidazo[4,5-b]pyridine]: the ED50 in data set [1] turned out to be 19.2 mg/kg; in data set [2], 35.1 mg/kg; in data set [3], 10.3 mg/kg; in data set [4], 23.2 mg/kg. Further, the LD50 in data set [5] (setting [7]) was more than 500 mg/kg; in data set [5] (oral administration), more than 4000 mg/kg.

For `COc1c(C)cnc(C[S+]([O-])c2nc3nc(OCC(F)(F)F)ccc3[nH]2)c1C` (stereo not drawn) [Example 26, 2-[2-(3,5-Dimethyl-4-methoxy)pyridylmethylsulfinyl]-5-(2,2,2-trifluoroethoxy)imidazo[4,5-b]pyridine], the ED50 worked out at 14.7 mg/kg in data set [1], 30.5 mg/kg in data set [2], 7.9 mg/kg in data set [3] and 15.8 mg/kg in data set [4]. For the same compound, the values for the LD50 in data set [5] (setting [7]) and in data set [5] (oral administration) were more than 500 mg/kg and more than 4000 mg/kg, respectively.

On to `COc1cc(C[S+]([O-])c2nc3nc(OCC4CC4)ccc3[nH]2)ncc1C` (stereo not drawn) [Example 13, 2-[2-(4-Methoxy-5-methyl)pyridylmethylsulfinyl]-5-cyclopropylmethyloxyimidazo[4,5-b]pyridine], for which the ED50 in data set [1] was found to be 17.4 mg/kg; in data set [2], 37.3 mg/kg; in data set [3] it was 9.6 mg/kg; in data set [4], 21.9 mg/kg. The LD50 in data set [5] (setting [7]) is more than 500 mg/kg; in data set [5] (oral administration), more than 4000 mg/kg.

Turning to `COc1ccc2[nH]c([S+]([O-])Cc3ncc(C)c(OC)c3C)nc2c1` (stereo not drawn) [Omeprazole, reference compound], the ED50 is 30.3 mg/kg in data set [1], 39.7 mg/kg in data set [2], 13.6 mg/kg in data set [3] and 24.7 mg/kg in data set [4]. This compound yielded an LD50 in data set [5] (oral administration) of more than 4000 mg/kg.

In the case of `COc1c(C)cnc(C[S+]([O-])c2nc3ncc(Br)cc3[nH]2)c1C` (stereo not drawn) [Compound α, 2-[2-(3,5-dimethyl-4-methoxy)pyridylmethylsulfinyl]-6-bromoimidazo[4,5-b]pyridine, reference compound], the ED50 in data set [1] is not below 100 mg/kg; in data set [2], not below 100 mg/kg; in data set [3], 63.3 mg/kg; in data set [4], 78.4 mg/kg. Further, in data set [6], the “inhibitory effects on various experimental ulcers (in words)” value is reported as “not satisfactorily reflected in the in vivo tests”.
